Laboratory results reported in US20100008980A1, “Use of MAGE A3-Protein D Fusion Antigen in Immunotherapy Combined with Surgery, Chemotherapy or Radiotherapy for the Treatment of Cancer” (priority 2007, published 2010).
Like-named read-outs stand apart in the source and are kept apart here.

Assays:
[1] = tested on: MAGE-A3
Method: (§1) Groups of CB6F1 female mice (n=10/group) received at day 0 sub-cutaneous (SC) 10e5 TC1-Mage3 cells followed by injection of: • Group 1: PBS at day 3-7-11-15 • Group 2: MAGE-A3 (1 μg)/As 15 ASCI at day 3-7-11-15 • Group 3: Cyclophosphamide (CY) (2 mg IP) at day 0+PBS at day 3-7-11-15 • Group 4: CY+MAGE-A3 (1 μg)/AS15 ASCI
(§2) • verification of the depletion by FACS at day 3 and 15 on whole blood • in vivo tumor growth from day 0 to day 28 • ICS at day 28 on spleen cells • serology at day 28 (not completed)
14 days after the last ASCI injection, the T cell response was analyzed by intracellular cytokine staining of CD4 and CD8 using flow cytometry (3 pools per group) after a short in vitro restimulation (2 Hrs) with the pool of MAGE-A3 overlapping peptide spanning the entire MAGE-A3 sequence.

[2] = tested on: TC1-Mage3 cells; assay type: in vivo, CB6F1 female mice; settings: 10e5 TC1 MAGE3 cells SC day 0; cyclophosphamide 2 mg at day 0; groups of 10 mice
Method: as §1, §2

[3] = tested on: CD4+CD25+ Treg; assay type: in vivo, CB6F1 female mice; settings: for % CD4+ CD25+/ total cell / % Treg/ total cell / CD4+ CD25+ (events): blood, CY 2 mg IP at day 0
Method: as §1, §2
(§3) In order to analyze the impact of 2 mg of CY injected intraperitoneally in mice, 3 and 15 days after the injection blood was taken and lymphocytes count was performed by FACS

[4] = tested on: lymphocytes; assay type: in vivo, CB6F1 female mice; settings: for Total Cell count (multisizer): blood, CY 2 mg IP at day 0
Method: as §1, §2, §3

O=P1(N(CCCl)CCCl)NCCCO1 (stereo not shown) [Cyclophosphamide (Cy), Cyclophosphamide]
MAGE-A3 specific CD4 response ([1]; cyclophosphamide by itself, spleen cells day 28, FIG. 1): did not induce any MAGE-A3 specific CD4 response | MAGE-A3 specific CD8 response ([1]; cyclophosphamide by itself, spleen cells day 28, FIG. 2): did not induce any MAGE_A3 specific CD8 response | effect on the CD4 response induced by the ASCI ([1]; cyclophosphamide given 3 days before the ASCI, FIG. 1): did not abolish the CD4 response induced by the ASCI there is even a trend in favor of a better response | effect on the CD8 response induced by the ASCI ([1]; cyclophosphamide given 3 days before the ASCI, FIG. 2): did not abolish the CD8 response induced by the ASCI there is even a trend in favor of a better response | tumor rejection, % of the animals [2]: 100% | number of T reg (in words) ([3]; 3 days after 2 mg cyclophosphamide): only slightly decreased the number of T reg but did not deplete them | % CD4+ CD25+/ total cell ([3]; 3 days): 0.1% | % Treg/ total cell ([3]; 3 days): 0.07% | CD4+ CD25+ (events) ([3]; 3 days): 274 events | % CD4+ CD25+/ total cell ([3]; 15 days): 0.16% | % Treg/ total cell ([3]; 15 days): 0.13% | CD4+ CD25+ (events) ([3]; 15 days): 539 events | total number of T cells (in words) ([4]; 3 days after 2 mg CY): has an impact on the total number of T cells | total number of T cells (in words) ([4]; 15 days after the injection of CY): almost restored | Total Cell count (multisizer) ([4]; 3 days after injection): 1 ×10e6 cells/ml | Total Cell count (multisizer) ([4]; 15 days after injection): 5.53 ×10e6 cells/ml
